Results on 13 compounds are retold here after PubChem BioAssay (NCI).

Structures are written as SMILES.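 The compound was tested at five concentrations on cells cultured in 96-well plates, with a 48-hour exposure period. GI50 is the concentration that inhibits growth by half. At the TGI there is no net growth.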

Test systems include 786-0 renal; NCI-H522 lung; OVCAR-8 ovarian; SK-MEL-28 melanoma; SK-MEL-5 melanoma; SN12C renal; SK-MEL-2 melanoma; SR leukemia.
What all share (assay): growth of human tumour cells (NCI), 48 h

As for `O=C(CN1CCCCC1)N1CCc2c([nH]c3ccccc23)C1c1cccnc1` (stereo unspecified), the TGI in the test with 786-0 renal, in the test on NCI-H522 lung, in the test with OVCAR-8 ovarian, with SK-MEL-28 melanoma, with SK-MEL-5 melanoma and in the test on SN12C renal was over 100 µM throughout.
As for `COC(=O)/C=C/C1C(C(=O)OC)C2(C(=O)OC)CCC1(C(=O)OC)N2` (stereo unspecified), the TGI in the test with 786-0 renal, with NCI-H522 lung, with OVCAR-8 ovarian, with SK-MEL-2 melanoma, in the test on SK-MEL-5 melanoma and in the test on SN12C renal was over 100 µM in each case. For the same compound, the TGI with SR leukemia is over 100 µM.
On to `CCOC(=O)c1[nH]c(COC(C)=O)c(CCCOC(C)=O)c1CCCOC(C)=O`, for which the TGI with 786-0 renal was over 100 µM; with NCI-H522 lung, 52.5 µM; in the test on OVCAR-8 ovarian it was over 100 µM; with SK-MEL-2 melanoma, over 100 µM; in the test on SK-MEL-28 melanoma, over 100 µM; in the test on SN12C renal, over 100 µM. The same compound had a TGI in the test on SR leukemia of over 100 µM.
For `CCOC(=O)C1N(S(=O)(=O)c2ccc(C)cc2)CCC12C(c1ccc(OC)cc1)NC1CCCCC12` (stereo unspecified), the TGI in the test with 786-0 renal, in the test with NCI-H522 lung, in the test on OVCAR-8 ovarian, in the test on SK-MEL-28 melanoma, with SK-MEL-5 melanoma and in the test on SN12C renal was over 100 µM in each case.
Take `CC1=C(C(=O)Nc2c(C)cccc2C)C(c2ccccc2Cl)C(C(=O)Nc2c(C)cccc2C)=C(C)N1`: the TGI in the test with 786-0 renal, in the test on NCI-H522 lung, in the test with OVCAR-8 ovarian, in the test with SK-MEL-2 melanoma, in the test with SK-MEL-28 melanoma and in the test on SK-MEL-5 melanoma was over 100 µM each time. In the test on SN12C renal, the TGI is over 100 µM.
Consider `O=C(/C=C/c1c(O)ccc2ccccc12)c1ccc2ccccc2c1`, for which the TGI in the test with 786-0 renal, in the test on NCI-H522 lung, with OVCAR-8 ovarian, with SK-MEL-2 melanoma, with SK-MEL-28 melanoma and in the test on SN12C renal was over 100 µM throughout.
With `N#CC(C#N)=c1[nH]c2cccc3c2-c2c(cccc2c3=C(C#N)C#N)[nH]1`, the TGI in the test with 786-0 renal, in the test with NCI-H522 lung, in the test on OVCAR-8 ovarian, with SK-MEL-5 melanoma, in the test with SN12C renal and in the test with SR leukemia was over 100 µM in each case.
With `O=S(O)CCCCSSCc1ccccc1CSSCCCCS(=O)O`, the TGI is over 100 µM in the test with 786-0 renal; 18.7 µM in the test with NCI-H522 lung; 89.5 µM with OVCAR-8 ovarian; over 100 µM in the test with SK-MEL-2 melanoma; 31.9 µM with SK-MEL-28 melanoma; 23.2 µM with SK-MEL-5 melanoma. Besides, the TGI in the test on SN12C renal was over 100 µM.
Regarding `O=C(CCC/C(CC(=O)c1ccc(Br)cc1)=N\O)Nc1ccccc1`, the TGI with 786-0 renal, with OVCAR-8 ovarian, in the test with SK-MEL-2 melanoma, in the test on SK-MEL-28 melanoma, with SK-MEL-5 melanoma and with SN12C renal was over 100 µM in each case.
For the compound `CCOC(=O)CCc1c(C)c2c(OC(C)=O)cc(OC(C)=O)cc2oc1=O`, the TGI in the test on 786-0 renal is over 100 µM; in the test on NCI-H522 lung, over 100 µM; in the test with OVCAR-8 ovarian, over 100 µM; in the test on SK-MEL-2 melanoma it was 82.2 µM; in the test on SK-MEL-28 melanoma, over 100 µM; with SN12C renal, 87 µM.
Turning to `NC1CCCC[C@H]1N.N[C@@H]1CCCC[C@@H]1N.O=C(P(=O)([O-])[O-])P(=O)([O-])[O-].[Pt+4].[Pt+4]`, the GI50 in the test with 786-0 renal is over 100 µM; in the test on NCI-H522 lung it was 11.9 µM; in the test with OVCAR-8 ovarian it was over 100 µM; with SK-MEL-2 melanoma, over 100 µM; in the test with SK-MEL-28 melanoma it was over 100 µM; in the test on SK-MEL-5 melanoma it was over 100 µM. Moreover, the GI50 with SN12C renal is over 100 µM. The TGI in the test on 786-0 renal is over 100 µM; in the test on NCI-H522 lung, 47.4 µM; with OVCAR-8 ovarian, over 100 µM; in the test on SK-MEL-2 melanoma, over 100 µM; in the test on SK-MEL-28 melanoma, over 100 µM; in the test on SK-MEL-5 melanoma it was over 100 µM. Moreover, in the test with SN12C renal, the TGI was over 100 µM.
For the compound `CC(=O)OCC1OC([S-])C(OC(C)=O)C(OC(C)=O)C1OC(C)=O.CC[PH+](CC)CC.CC[PH+](CC)CC.[Au].[Au]` (stereo unspecified), the GI50 in the test with 786-0 renal was 0.185 µM; in the test on OVCAR-8 ovarian, 0.371 µM; with SK-MEL-2 melanoma it was 0.187 µM; in the test on SK-MEL-28 melanoma it was 0.167 µM; with SK-MEL-5 melanoma it was 0.132 µM; in the test on SN12C renal, 0.567 µM. The TGI is 0.401 µM in the test with 786-0 renal; 1.52 µM in the test with OVCAR-8 ovarian; 0.49 µM in the test with SK-MEL-2 melanoma; 0.791 µM in the test with SK-MEL-28 melanoma; 0.346 µM in the test on SK-MEL-5 melanoma; 1.78 µM in the test with SN12C renal.
On to `O=C(/C=C/c1ccccc1)/C=C/c1ccccc1`, for which the TGI is 85.5 µM with 786-0 renal; over 100 µM in the test on SK-MEL-2 melanoma; 42.9 µM in the test on SK-MEL-28 melanoma; over 100 µM in the test with SK-MEL-5 melanoma; 42.1 µM with SN12C renal; 67.1 µM in the test on SR leukemia.
